Measured values as given in patent US8084649B2, “Herbicides” (Syngenta Crop Protection, inc., priority 2007, dated 2011).

Experiments:
Assay type in all cases: in vivo
[1] = tested on: Echinochloa crus-galli (ECHCG); assay: Pre-emergence herbicidal activity, glasshouse pot test; details: Echinochloa crus-galli, 480 h, evaluated after 20 days, read-out: Pre-emergence activity, ECHCG (100=total damage to plant; 0=no damage to plant); for pest or weed control at 500 g/ha: rate 500 g/ha
Outline: (§1)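 Test compound, taken up in acetone with an Emulsogen EL/NMP/dipropylene glycol monomethyl ether/X-77 formulant and diluted with water, was sprayed onto soil of freshly sown pots after one day of cultivation. Evaluation at 20 days used a 0–100 injury rating.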

[2] = tested on: Alopecurus myosuroides (ALOMY); assay: as above; details: Alopecurus myosuroides, 480 h, evaluated after 20 days, read-out: Pre-emergence activity, ALOMY (100=total damage to plant; 0=no damage to plant); for pest or weed control at 500 g/ha: rate 500 g/ha
Outline: as §1

[3] = tested on: Setaria faberi (SETFA); assay: as above; details: Setaria faberi, 480 h, evaluated after 20 days, read-out: Pre-emergence activity, SETFA (100=total damage to plant; 0=no damage to plant); for pest or weed control at 500 g/ha: rate 500 g/ha
Outline: as §1

[4] = tested on: Avena fatua (AVEFA); assay: as above; details: Avena fatua, 480 h, evaluated after 20 days, read-out: Pre-emergence activity, AVEFA (100=total damage to plant; 0=no damage to plant); for pest or weed control at 500 g/ha: rate 500 g/ha
Outline: as §1

[5] = tested on: Lolium perenne (LOLPE); assay: as above; details: Lolium perenne, 480 h, evaluated after 20 days, read-out: Pre-emergence activity, LOLPE (100=total damage to plant; 0=no damage to plant); for pest or weed control at 500 g/ha: rate 500 g/ha
Outline: as §1

[6] = tested on: Digitaria sanguinalis (DIGSA); assay: as above; details: Digitaria sanguinalis, 480 h, evaluated after 20 days, read-out: Pre-emergence activity, DIGSA (100=total damage to plant; 0=no damage to plant); for pest or weed control at 500 g/ha: rate 500 g/ha
Outline: as §1

[7] = tested on: Echinochloa crus-galli (ECHCG); assay: Post-emergence herbicidal activity, glasshouse pot test; details: Echinochloa crus-galli, evaluated after 14 or 15 days, read-out: Post-emergence activity, ECHCG (100=total damage to plant; 0=no damage to plant); for pest or weed control at 500 g/ha: rate 500 g/ha
Outline: (§2)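 Post-emergence spray on 10-day-old potted plants (sterilised standard soil, controlled glasshouse conditions); spray solution from technical compound in acetone with Emulsogen EL, N-methylpyrrolidone, dipropylene glycol monomethyl ether and X-77. Rated 14–15 d later, 0 = no damage, 100 = total damage.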

[8] = tested on: Alopecurus myosuroides (ALOMY); assay: as above; details: Alopecurus myosuroides, evaluated after 14 or 15 days, read-out: Post-emergence activity, ALOMY (100=total damage to plant; 0=no damage to plant); for pest or weed control at 500 g/ha: rate 500 g/ha
Outline: as §2

[9] = tested on: Setaria faberi (SETFA); assay: as above; details: Setaria faberi, evaluated after 14 or 15 days, read-out: Post-emergence activity, SETFA (100=total damage to plant; 0=no damage to plant); for pest or weed control at 500 g/ha: rate 500 g/ha
Outline: as §2

[10] = tested on: Avena fatua (AVEFA); assay: as above; details: Avena fatua, evaluated after 14 or 15 days, read-out: Post-emergence activity, AVEFA (100=total damage to plant; 0=no damage to plant); for pest or weed control at 500 g/ha: rate 500 g/ha
Outline: as §2

[11] = tested on: Lolium perenne (LOLPE); assay: as above; details: Lolium perenne, evaluated after 14 or 15 days, read-out: Post-emergence activity, LOLPE (100=total damage to plant; 0=no damage to plant); for pest or weed control at 500 g/ha: rate 500 g/ha
Outline: as §2

[12] = tested on: Digitaria sanguinalis (DIGSA); assay: as above; details: Digitaria sanguinalis, evaluated after 14 or 15 days, read-out: Post-emergence activity, DIGSA (100=total damage to plant; 0=no damage to plant); for pest or weed control at 500 g/ha: rate 500 g/ha
Outline: as §2

Row | Structure (SMILES) | pest or weed control at 500 g/ha [1] | pest or weed control at 500 g/ha [2] | pest or weed control at 500 g/ha [3] | pest or weed control at 500 g/ha [4] | pest or weed control at 500 g/ha [5] | pest or weed control at 500 g/ha [6] | pest or weed control at 500 g/ha [7] | pest or weed control at 500 g/ha [8] | pest or weed control at 500 g/ha [9] | pest or weed control at 500 g/ha [10] | pest or weed control at 500 g/ha [11] | pest or weed control at 500 g/ha [12] | further results
1 | CCc1cc(C)cc(CC)c1C1=C(O)CC(C(C)(C)S(C)(=O)=O)CC1=O (stereo not drawn) [Compound T19] |  |  |  |  |  |  |  |  |  |  |  |  | pest or weed control at 250 g/ha ([1]; rate 250 g/ha): 80%; pest or weed control at 250 g/ha ([2]; rate 250 g/ha): 70%; pest or weed control at 250 g/ha ([3]; rate 250 g/ha): 50%; pest or weed control at 250 g/ha ([4]; rate 250 g/ha): 70%; pest or weed control at 250 g/ha ([5]; rate 250 g/ha): 80%; pest or weed control at 250 g/ha ([6]; rate 250 g/ha): 90%; pest or weed control at 250 g/ha ([7]; rate 250 g/ha): 80%; pest or weed control at 250 g/ha ([8]; rate 250 g/ha): 80%; pest or weed control at 250 g/ha ([9]; rate 250 g/ha): 80%; pest or weed control at 250 g/ha ([10]; rate 250 g/ha): 80%; pest or weed control at 250 g/ha ([11]; rate 250 g/ha): 80%; pest or weed control at 250 g/ha ([12]; rate 250 g/ha): 80%
2 | CCc1cc(C)cc(CC)c1C1=C(O)CC(C(C)(C)SC)CC1=O (stereo not drawn) [Compound T20] | 100% | 100% | 100% | 100% | 100% | 100% | 100% | 100% | 100% | 100% | 100% | 100% | 
3 | CCc1cc(C)cc(CC)c1C1=C(O)CC(C2(SC)CC2)CC1=O (stereo not drawn) [Compound T21] | 100% | 100% | 100% | 100% | 100% | 100% | 90% | 90% | 90% | 100% | 90% | 100% | 
4 | CCc1cc(C)cc(CC)c1C1=C(O)CC2(CCOCC2)CC1=O [Compound T22, 9-(2,6-diethyl-4-methylphenyl)-3-oxaspiro[5.5]undecane-8,10-dione] | 100% | 100% | 100% | 100% | 100% | 100% |  |  |  |  |  |  | pest or weed control at 125 g/ha ([7]; rate 125 g/ha): 100%; pest or weed control at 125 g/ha ([8]; rate 125 g/ha): 100%; pest or weed control at 125 g/ha ([9]; rate 125 g/ha): 100%; pest or weed control at 125 g/ha ([10]; rate 125 g/ha): 90%; pest or weed control at 125 g/ha ([11]; rate 125 g/ha): 90%; pest or weed control at 125 g/ha ([12]; rate 125 g/ha): 100%
5 | CCc1cc(C)cc(CC)c1C1=C(O)CC(COCOC)CC1=O (stereo not drawn) [Compound T23] | 100% | 80% | 70% | 70% | 80% | 100% | 100% | 90% | 100% | 80% | 90% | 90% | 
6 | CCc1cc(C)cc(CC)c1C1=C(O)CC(COCCOC)CC1=O (stereo not drawn) [Compound T24] | 100% | 100% | 100% | 80% | 100% | 100% | 100% | 90% | 100% | 80% | 90% | 90% | 
7 | CCc1cc(C)cc(CC)c1C1=C(O)CC(C2(SC)CCC2)CC1=O (stereo not drawn) [Compound T25] | 100% | 100% | 100% | 100% | 100% | 100% | 80% | 100% | 100% | 100% | 90% | 100% | 
8 | Cc1cc(C)c(C2=C(O)CC3(CCOCC3)CC2=O)c(C)c1 [Compound T26] | 100% | 90% | 70% | 20% | 90% | 100% | 100% | 60% | 80% | 10% | 50% | 80% | 
9 | CCc1cc(C)cc(C)c1C1=C(O)CC2(CCOCC2)CC1=O [Compound T27] | 100% | 100% | 100% | 100% | 100% | 100% | 100% | 80% | 100% | 90% | 80% | 90% | 
10 | CCc1cc(C)cc(CC)c1C1=C(O)CC(CC(C)S(=O)(=O)CC)CC1=O (stereo not drawn) [Compound T28, 2-(2,6-diethyl-4-methylphenyl)-5-[2-(ethylsulfonyl)propyl]cyclohexane-1,3-dione] | 100% | 70% | 100% | 100% | 100% | 100% | 100% | 90% | 90% | 100% | 80% | 100% | 
